According to EP4581948A1, “AEROSOLISABLE MATERIAL FOR USE IN AN ARTICLE” (BT DE Investments Inc., priority 2024, dated 2025):

Assay: Solubility study: maximum solubility of terpenes in solvent by stepwise addition and visual inspection
Format: physicochemical
Settings: ambient temperature (18 to 22 degrees Celsius); for Max. solubility of terpenes in solvent (% w/w) BA: solvent benzyl alcohol (BA); for Max. solubility of terpenes in solvent (% w/w) PG: solvent propylene glycol (PG); for Max. solubility of terpenes in solvent (% w/w) PG + 8% BA: solvent propylene glycol with 8%w/w benzyl alcohol
Description: A solubility study was carried out to assess the solubility of a range of terpenes in propylene glycol (PG) and benzyl alcohol (BA), and a mixture of propylene glycol (PG) and 8%w/w benzyl alcohol (BA) (materials were sourced from Sigma).
In particular, the maximum solubility at ambient temperature was assessed following the stepwise addition of each terpene to the relevant solvent or solvent mixture. Each terpene was added in aliquots to a solvent (PG, BA or a combination of PG and BA, where the BA was present in an amount of 8%w/w of the PG) and stirred at ambient temperature (18 to 22 degrees Celsius) until the terpene had fully solubilized. The next aliquot of terpene was then added.

SMILES	Max. solubility of terpenes in solvent (% w/w) BA	Max. solubility of terpenes in solvent (% w/w) PG	Max. solubility of terpenes in solvent (% w/w) PG + 8% BA
C=CC(C)(CCC=C(C)C)OC(C)=O (stereo not drawn) [Linalyl acetate]	34.5 % w/w	1.4 % w/w	6.0 % w/w
C=C[C@](C)(O)CCC=C(C)C [R- linalool]	73.2 % w/w	72.6 % w/w	74.3 % w/w
C=C1CC/C=C(\C)CC[C@@H]2[C@@H]1CC2(C)C [beta-caryophyllene]	11.0 % w/w	1.1 % w/w	2.4 % w/w
CC(C)=CCCC(C)CCO (stereo not drawn) [beta-citronellol]	71.2 % w/w	47.0 % w/w	70.3 % w/w
